Legend:
Format in all cases: cell-based
different microbes = experiment: Antimicrobial testing, overall conclusion; conditions: summary of Tables 1 and 2
Experimental: (§1) The agar plate disc-diffusion method was applied. Sterilized filter papers (6 mm in diameter) were wetted with 10 μL of a solution of compounds 6-(6-bromo-2-oxo-2H-chromen-3-yl)-4-(2-chlorophenyl)-2-ethoxynicotinonitrile 1 or 6-(6-bromo-2-oxo-2H-chromen-3-yl)-4-(2-chlorophenyl)-2-methoxynicotinonitrile 2 to be tested, containing […], and the discs were allowed to air dry. The discs were then placed onto the surface of agar plates (nutrient agar for bacteria and Sabouraud's dextrose agar for fungi) seeded with the test organism. Each plate contained 15 mL of the agar medium, previously seeded with 0.2 mL of the broth culture of each organism pregrown for 18 hours. The plates were incubated at 37° C. for 48 hours, and 72 hours for fungi. The inhibition zones were measured in mm. Discs impregnated with DMSO were used as a control, and its inhibition zone was subtracted from the tested compound actual inhibition zone.
Their antibacterial activity was screened against gram positive bacteria namely Bacillus cereus and Staphylococcus aureus and gram-negative bacterial strains namely Pseudomonas aeruginosa and Escherichia coli, while their antifungal activity was screened against Aspergillus flavus and Chrysosporium keratinophilum.

Staphylococcus aureus = experiment: Agar plate disc-diffusion, antibacterial activity by inhibition zone
Experimental: as §1
(§2) The results of the antimicrobial testing can be observed in Tables 1 and 2, below, using ciprofloxacin as a reference.

Pseudomonas aeruginosa = experiment: as above
Experimental: as §1, §2

Bacillus cereus = experiment: as above
Experimental: as §1, §2

Escherichia coli = experiment: as above
Experimental: as §1, §2

[1] = test system: Chrysosporium keratinophilum; experiment: Agar plate disc-diffusion, antifungal activity by inhibition zone
Experimental: as §1, §2

Aspergillus flavus = experiment: as above
Experimental: as §1, §2

[2] = A = concentration of comp. = 10,000 μL
[3] = B = concentration of comp. = 30,000 μL
[4] = C = concentration of comp. = 50,000 μL

Row | Compound | antimicrobial activities (different microbes) | inhibition zone (Staphylococcus aureus; [2]) [mm] | inhibition zone (Staphylococcus aureus; [3]) [mm] | inhibition zone (Staphylococcus aureus; [4]) [mm] | inhibition zone (Pseudomonas aeruginosa; [2]) [mm] | inhibition zone (Pseudomonas aeruginosa; [3]) [mm] | inhibition zone (Pseudomonas aeruginosa; [4]) [mm] | inhibition zone (Bacillus cereus; [2]) [mm] | inhibition zone (Bacillus cereus; [3]) [mm] | inhibition zone (Bacillus cereus; [4]) [mm] | inhibition zone (Escherichia coli; [2]) [mm] | inhibition zone (Escherichia coli; [3]) [mm] | inhibition zone (Escherichia coli; [4]) [mm] | inhibition zone [1, 2] [mm] | inhibition zone [1, 3] [mm] | inhibition zone [1, 4] [mm] | inhibition zone (Aspergillus flavus; [2]) [mm] | inhibition zone (Aspergillus flavus; [3]) [mm] | inhibition zone (Aspergillus flavus; [4]) [mm]
1 | CCOc1nc(-c2cc3cc(Br)ccc3oc2=O)cc(-c2ccccc2Cl)c1C#N [Compound 1, 6-(6-bromo-2-oxo-2H-chromen-3-yl)-4-(2-chlorophenyl)-2-ethoxynicotinonitrile] | high antimicrobial activities | 17 | 20 | 36 | 26 | 30 | 40 | 26 | 29 | 39 | 27 | 38 | 49 | 26 | 27 | 38 | 19 | 21 | 29
2 | COc1nc(-c2cc3cc(Br)ccc3oc2=O)cc(-c2ccccc2Cl)c1C#N [Compound 2, 6-(6-bromo-2-oxo-2H-chromen-3-yl)-4-(2-chlorophenyl)-2-methoxynicotinonitrile] | high antimicrobial activities | 16 | 24 | 32 | 26 | 33 | 39 | 25 | 30 | 39 | 27 | 35 | 46 | 22 | 28 | 41 | 25 | 28 | 39
3 | O=C(O)c1cn(C2CC2)c2cc(N3CCNCC3)c(F)cc2c1=O [Cip., ciprofloxacin, reference compound] |  | 43 | 44 | 53 | 29 | 30 | 53 | 29 | 30 | 42 | 30 | 39 | 60 | 29 | 30 | 53 | 29 | 30 | 42

Reference: patent publication US11905278B1, “6-(6-bromo-2-oxo-2H-chromen-3-yl)-4-(2-chlorophenyl)-2-alkoxynicotinonitrile as an antimicrobial compound” (KING FAISAL UNIVERSITY, priority 2023, dated 2024)
